Measurements reported in PMC3515450, “Mechanistic and Structural Understanding of Uncompetitive Inhibitors of Caspase-6” (PLoS ONE, 2012).

Molecular target: T1, caspase-6/(VEID)2R110 Michaelis complex (Homo sapiens, UniProt P55212, C163A)
T1 construct: Avi-tagged zymogen C163A-caspase-6 was processed to mature C163A-caspase-6 by the addition of active caspase-3 and caspase-6; made in house
T1 sequence (P55212 24-179 C163A): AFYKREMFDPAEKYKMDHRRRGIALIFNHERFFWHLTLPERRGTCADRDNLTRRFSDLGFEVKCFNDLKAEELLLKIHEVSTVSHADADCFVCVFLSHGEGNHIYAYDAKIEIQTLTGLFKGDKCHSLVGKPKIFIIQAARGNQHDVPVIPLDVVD
T1 sequence (P55212 194-293): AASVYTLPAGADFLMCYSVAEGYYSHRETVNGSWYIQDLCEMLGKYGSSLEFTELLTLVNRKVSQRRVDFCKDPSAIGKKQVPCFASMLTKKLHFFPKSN
Test: SPR co-injection with (VEID)2R110 over apo- and C163A-caspase-6
Assay type: binding
Settings: co-injected with (VEID)2R110, dissociation of both compound and substrate, read-out: apparent KD
Description: For SPR experiments, caspase-6 was cloned to include a C-terminal avi-tag (Avidity) and expressed and purified as above, except that biotin ligase (BirA) was co-expressed during fermentation. […] Avi-tagged zymogen C163A-caspase-6 was processed to mature C163A-caspase-6 by the addition of active caspase-3 and caspase-6. Chip preparation for neutravidin-based capture was performed as previously described using either a Biacore T100 or Biacore 3000 instrument (GE Healthcare). Running buffer was 50 mM HEPES pH 7.2, 100 mM MgSO4, 30 mM NaCl, 1 mM TCEP, 0.01% Triton X-100, 1% PEG-3350, 2.5% DMSO, and the instrument was set for 20 degrees C. After capture one flow cell of apo-caspase-6 was exposed to a continuous flow of 20 µM VEID-FMK. A rise in signal could be detected for the binding/reacting of the VEID-FMK and exposure was continued until no additional rise in response was observed (∼45 minutes) indicating full saturation of all binding sites. There was no observed decrease in signal upon washing, indicating the reaction was irreversible. […] Fluorescent substrates were too limiting in solubility and quantity to be added to the running buffer, so substrates were mixed at a concentration equal to their Kmapp with 3 and injected together over the indicated surfaces. […]

Compound: COc1ccc(-c2cc(C(=O)N[C@@H](CO)Cc3cccc(C#N)c3)co2)cc1OC [Compound 3]
- Kd: ~200 nM
